One data set has as its system the other currents. Description: Inversion of voltage and calcium traces measured in hiPSC-CMs in a cardiac MPS (channel block identification). As to conditions: cisapride 10 nM; measured MPS data of hiPSC-CMs (FIG. 5). It is filed as cell-based, human. From the text: [formula] […] The Minimization Procedure
A further data set addresses IKr (Homo sapiens, UniProt Q12809). As to conditions: from the literature; cited from earlier work.
Another data set concerns the target ICaL (Homo sapiens, UniProt Q13936). As to conditions: from the literature; cited from earlier work.

Structures are written as SMILES.

ICaL, sequence (Q13936 whole entry): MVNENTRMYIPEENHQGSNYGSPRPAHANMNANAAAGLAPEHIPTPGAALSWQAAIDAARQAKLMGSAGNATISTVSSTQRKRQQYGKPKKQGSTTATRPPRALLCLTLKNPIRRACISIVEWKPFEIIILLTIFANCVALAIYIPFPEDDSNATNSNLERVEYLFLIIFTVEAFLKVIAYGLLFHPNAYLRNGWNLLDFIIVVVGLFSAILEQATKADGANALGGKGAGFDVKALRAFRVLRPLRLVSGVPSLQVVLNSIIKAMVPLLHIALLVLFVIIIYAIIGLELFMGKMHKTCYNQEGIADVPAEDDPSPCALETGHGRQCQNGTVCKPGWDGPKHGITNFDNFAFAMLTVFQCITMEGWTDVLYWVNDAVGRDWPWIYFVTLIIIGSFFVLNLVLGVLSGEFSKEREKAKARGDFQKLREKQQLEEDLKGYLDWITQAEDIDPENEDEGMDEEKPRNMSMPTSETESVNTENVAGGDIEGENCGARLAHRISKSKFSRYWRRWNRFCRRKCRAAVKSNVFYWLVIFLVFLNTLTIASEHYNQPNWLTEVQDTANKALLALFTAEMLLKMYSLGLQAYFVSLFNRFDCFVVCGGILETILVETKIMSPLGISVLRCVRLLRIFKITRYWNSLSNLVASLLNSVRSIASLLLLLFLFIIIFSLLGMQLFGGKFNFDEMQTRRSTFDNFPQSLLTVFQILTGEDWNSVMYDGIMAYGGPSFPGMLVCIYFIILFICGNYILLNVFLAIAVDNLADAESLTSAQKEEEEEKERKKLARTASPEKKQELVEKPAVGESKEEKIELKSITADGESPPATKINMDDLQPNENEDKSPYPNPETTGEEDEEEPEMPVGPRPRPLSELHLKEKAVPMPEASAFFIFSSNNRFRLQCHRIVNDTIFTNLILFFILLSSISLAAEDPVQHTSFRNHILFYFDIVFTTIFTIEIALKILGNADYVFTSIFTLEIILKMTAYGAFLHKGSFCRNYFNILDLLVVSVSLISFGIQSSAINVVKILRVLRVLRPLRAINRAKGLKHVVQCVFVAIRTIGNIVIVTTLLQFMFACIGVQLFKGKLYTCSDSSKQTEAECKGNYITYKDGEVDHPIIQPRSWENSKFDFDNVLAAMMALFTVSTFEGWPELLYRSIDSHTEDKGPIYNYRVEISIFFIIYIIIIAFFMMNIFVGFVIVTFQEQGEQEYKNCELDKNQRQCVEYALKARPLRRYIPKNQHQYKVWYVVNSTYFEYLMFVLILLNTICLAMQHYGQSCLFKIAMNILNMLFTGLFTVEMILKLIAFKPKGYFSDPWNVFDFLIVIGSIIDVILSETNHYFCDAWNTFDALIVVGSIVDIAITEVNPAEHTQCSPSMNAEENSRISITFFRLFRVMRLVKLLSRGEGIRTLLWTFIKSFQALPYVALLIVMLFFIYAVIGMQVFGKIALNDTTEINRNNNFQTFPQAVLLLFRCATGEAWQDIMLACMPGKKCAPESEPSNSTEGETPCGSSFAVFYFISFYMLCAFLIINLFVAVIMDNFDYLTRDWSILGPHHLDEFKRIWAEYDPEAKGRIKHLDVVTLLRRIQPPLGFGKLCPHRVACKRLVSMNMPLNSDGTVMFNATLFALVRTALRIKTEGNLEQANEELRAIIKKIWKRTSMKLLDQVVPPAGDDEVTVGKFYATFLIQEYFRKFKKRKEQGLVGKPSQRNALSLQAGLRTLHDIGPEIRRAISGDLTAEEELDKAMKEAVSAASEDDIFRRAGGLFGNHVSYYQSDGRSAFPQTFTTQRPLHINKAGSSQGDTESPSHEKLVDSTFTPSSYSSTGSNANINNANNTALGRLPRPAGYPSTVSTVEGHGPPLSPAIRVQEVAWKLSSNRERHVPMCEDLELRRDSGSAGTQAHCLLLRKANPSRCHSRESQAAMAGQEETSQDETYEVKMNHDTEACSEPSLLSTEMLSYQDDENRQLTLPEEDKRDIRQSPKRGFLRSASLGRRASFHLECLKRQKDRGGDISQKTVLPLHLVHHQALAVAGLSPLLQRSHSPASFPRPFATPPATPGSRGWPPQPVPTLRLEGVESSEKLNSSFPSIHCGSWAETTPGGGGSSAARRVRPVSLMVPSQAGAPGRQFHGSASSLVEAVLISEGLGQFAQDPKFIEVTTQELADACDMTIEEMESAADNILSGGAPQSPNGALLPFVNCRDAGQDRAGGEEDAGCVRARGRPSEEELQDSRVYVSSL
ICaL, sequence (Q08289 whole entry partner): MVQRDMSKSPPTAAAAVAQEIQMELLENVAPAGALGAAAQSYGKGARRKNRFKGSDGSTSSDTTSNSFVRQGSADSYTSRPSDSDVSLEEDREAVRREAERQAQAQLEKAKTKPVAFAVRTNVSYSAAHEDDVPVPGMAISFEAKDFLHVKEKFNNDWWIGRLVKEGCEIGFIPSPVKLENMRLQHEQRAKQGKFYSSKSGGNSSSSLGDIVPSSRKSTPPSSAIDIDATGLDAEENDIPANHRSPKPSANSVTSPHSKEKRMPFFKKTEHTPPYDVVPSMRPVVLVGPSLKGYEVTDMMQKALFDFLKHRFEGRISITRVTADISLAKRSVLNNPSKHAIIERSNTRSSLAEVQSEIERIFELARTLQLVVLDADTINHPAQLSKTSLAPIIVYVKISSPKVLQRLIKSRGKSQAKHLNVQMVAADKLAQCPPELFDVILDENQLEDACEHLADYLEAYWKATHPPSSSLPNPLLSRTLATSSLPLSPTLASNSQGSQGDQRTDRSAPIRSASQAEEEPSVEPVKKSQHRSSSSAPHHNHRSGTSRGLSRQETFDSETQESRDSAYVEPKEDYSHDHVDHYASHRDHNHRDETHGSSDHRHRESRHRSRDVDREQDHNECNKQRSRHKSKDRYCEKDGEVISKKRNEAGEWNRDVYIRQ
ICaL, sequence (P54289 25-946 partner limits assumed): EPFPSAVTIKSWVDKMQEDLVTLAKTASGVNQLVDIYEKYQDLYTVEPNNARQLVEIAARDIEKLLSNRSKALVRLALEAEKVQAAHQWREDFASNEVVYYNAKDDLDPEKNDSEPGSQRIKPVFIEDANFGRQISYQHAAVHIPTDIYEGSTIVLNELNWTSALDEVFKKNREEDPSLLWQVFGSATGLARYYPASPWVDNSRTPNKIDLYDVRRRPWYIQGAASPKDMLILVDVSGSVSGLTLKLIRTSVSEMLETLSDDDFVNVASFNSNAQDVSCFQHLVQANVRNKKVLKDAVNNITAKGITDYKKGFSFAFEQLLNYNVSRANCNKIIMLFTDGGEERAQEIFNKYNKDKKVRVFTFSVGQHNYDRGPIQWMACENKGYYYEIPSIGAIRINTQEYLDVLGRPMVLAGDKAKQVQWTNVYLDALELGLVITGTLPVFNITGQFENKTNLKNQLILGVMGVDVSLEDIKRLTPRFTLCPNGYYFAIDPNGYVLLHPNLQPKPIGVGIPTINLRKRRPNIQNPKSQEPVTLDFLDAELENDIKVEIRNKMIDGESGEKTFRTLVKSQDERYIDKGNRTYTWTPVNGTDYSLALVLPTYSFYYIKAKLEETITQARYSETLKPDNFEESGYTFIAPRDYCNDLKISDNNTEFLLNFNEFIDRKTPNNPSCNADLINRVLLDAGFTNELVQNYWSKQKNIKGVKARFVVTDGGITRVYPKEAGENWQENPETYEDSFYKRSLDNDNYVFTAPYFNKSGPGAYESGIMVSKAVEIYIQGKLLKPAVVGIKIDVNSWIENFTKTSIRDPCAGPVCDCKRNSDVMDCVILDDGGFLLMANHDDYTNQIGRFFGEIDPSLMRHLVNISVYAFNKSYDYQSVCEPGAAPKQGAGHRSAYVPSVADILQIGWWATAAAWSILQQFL
ICaL, sequence (P54289 947-1103 partner limits assumed): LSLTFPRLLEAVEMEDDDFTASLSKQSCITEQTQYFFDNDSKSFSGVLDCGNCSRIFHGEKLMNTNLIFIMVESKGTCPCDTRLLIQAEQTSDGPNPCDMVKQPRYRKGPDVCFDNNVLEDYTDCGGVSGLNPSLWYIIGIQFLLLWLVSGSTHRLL
IKr, sequence (Q12809 whole entry): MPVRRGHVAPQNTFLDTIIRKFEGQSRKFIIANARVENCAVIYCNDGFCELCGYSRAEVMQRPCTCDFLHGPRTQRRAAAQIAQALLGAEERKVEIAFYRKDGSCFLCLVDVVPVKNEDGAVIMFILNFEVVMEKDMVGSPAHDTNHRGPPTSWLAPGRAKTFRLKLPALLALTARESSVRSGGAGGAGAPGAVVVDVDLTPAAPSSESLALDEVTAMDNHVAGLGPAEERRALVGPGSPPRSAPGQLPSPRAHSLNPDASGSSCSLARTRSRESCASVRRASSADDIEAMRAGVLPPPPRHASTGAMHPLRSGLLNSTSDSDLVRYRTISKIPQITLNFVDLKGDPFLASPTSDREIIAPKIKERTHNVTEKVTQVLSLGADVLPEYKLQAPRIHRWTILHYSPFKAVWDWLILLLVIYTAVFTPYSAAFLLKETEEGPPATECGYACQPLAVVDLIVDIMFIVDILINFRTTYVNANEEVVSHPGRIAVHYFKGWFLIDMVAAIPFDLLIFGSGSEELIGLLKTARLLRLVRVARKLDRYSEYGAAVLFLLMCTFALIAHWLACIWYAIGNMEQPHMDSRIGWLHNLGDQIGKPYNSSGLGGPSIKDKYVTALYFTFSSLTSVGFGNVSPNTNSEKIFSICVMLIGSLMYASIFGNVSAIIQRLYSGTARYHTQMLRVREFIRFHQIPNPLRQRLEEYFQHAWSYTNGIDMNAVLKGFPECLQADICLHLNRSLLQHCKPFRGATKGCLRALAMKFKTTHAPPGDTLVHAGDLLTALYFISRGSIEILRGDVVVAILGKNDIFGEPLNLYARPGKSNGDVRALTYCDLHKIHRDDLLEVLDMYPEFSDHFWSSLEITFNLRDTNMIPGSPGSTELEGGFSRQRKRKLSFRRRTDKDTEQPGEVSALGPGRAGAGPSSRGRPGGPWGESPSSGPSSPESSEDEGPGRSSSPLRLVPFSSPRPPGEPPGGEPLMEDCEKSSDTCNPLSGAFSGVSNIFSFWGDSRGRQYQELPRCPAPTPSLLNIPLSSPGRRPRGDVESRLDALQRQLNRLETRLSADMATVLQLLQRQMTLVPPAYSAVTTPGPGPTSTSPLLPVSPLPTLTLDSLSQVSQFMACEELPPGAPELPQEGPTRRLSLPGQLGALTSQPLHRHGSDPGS

As for `COc1cc(N)c(Cl)cc1C(=O)NC1CCN(CCCOc2ccc(F)cc2)CC1OC` (stereo not drawn) [cisapride], the “Effect on the other currents, full inversion procedure” value in the data set on the other currents was “nearly unaffected”. The “Known effect on IKr” value at IKr was “blocks”.

Regarding `COc1ccc(CCN(C)CCCC(C#N)(c2ccc(OC)c(OC)c2)C(C)C)cc1OC` (stereo not drawn) [verapamil], on ICaL, the “Known effect on ICaL” value was “blocks”.
